# Assay: Distribution of compounds in sebaceous glands and blood in golden hamsters
# Format: in vivo
# Settings: for mean drug concentration in sebaceous glands: after 8 h
# Procedure: Activity Assay Example 9: Distribution of Compounds in Sebaceous Glands and Blood in Golden Hamsters
# 6 male golden hamsters were selected for the experiment and divided into two groups (three in each group). The drug was administered by a single smear route. All animals fasted overnight before administration.
# 1.1 Experimental Method 1.1.1 Dosage of Administration
# A46 was weighed into a 50 ml centrifuge tube, added with mixed solvent (75% ethanol, 15% glyceryl tri(2-ethylhexanoate) and 10% glycerol), vortexed and heated at 60° C. until A46 was completely dissolved. A46 was prepared at a concentration of 30 mg/mL, 100 mg/mL, and stored at room temperature in the dark.
# In group 1, the dosage for smear administration was 1.2 mg, corresponding to an administration volume of 30 mL/kg. In group 2, the dosage for smear administration was 4 mg, and the administration volume was 100 mL/kg.
# 1.1.2 Method of Administration
# During the experiment, the 2 sebaceous glands of all the hamsters were coated with the corresponding medicinal solution (the dosage was about 0.02 mL).
# 1.1.3 Observation of Animal Status
# Immediately after administration, whether the animals have abnormal reactions was observed. If there were no abnormal reactions, the animals were observed twice during the experiment. If any abnormal reactions were found, the number of observations was recorded and increased in time until the animals returned to normal, or the experiment ended.
# 1.1.4 Sample Collection and Storage
# All experimental animals were fasted overnight before administration, and blood was collected at corresponding time points into blood collection tubes containing heparin sodium anticoagulant after administration. After collection of whole blood, the blood collection tube was immediately shook gently and placed on ice, then centrifuged (4° C., 4000 rpm, 10 min) to collect the supernatant plasma sample (plasma volume ≥100 μL), and the supernatant plasma sample was stored at −80° C. before analysis. Plasma sample was collected for 8 h.
compound,measurement,setting,value
Cc1ncsc1-c1ccc(CNC(=O)[C@@H]2C[C@@H](O)CN2C(=O)[C@@H](NC(=O)COCCCCOc2ccc(-c3ccc(N4C(=S)N(c5ccc(C#N)c(C(F)(F)F)c5F)C(=O)C4(C)C)cn3)cc2)C(C)(C)C)cc1 [Compound A46],mean drug concentration in sebaceous glands,"group 1, single smear 1.2 mg (30 mg/mL)",13513 ng/mL
same,mean drug concentration in sebaceous glands,"group 2, single smear 4 mg (100 mg/mL)",24223 ng/mL
same,maximum blood concentration,"group 2, single smear 4 mg (100 mg/mL), one out of 3 animals, sampling 0.25-8 h",10.6 ng/mL
same,blood concentration (below the detection limit),"group 2, single smear 4 mg (100 mg/mL), remaining 2 animals, sampling 0.25-8 h",< 2 ng/mL
